The source of these data is patent US6037333A, “Microbe-inhibiting compositions” (Trustees of Tufts College, priority 1998, dated 2000).

“Also recorded” adds a separate entry of the source.

The target in test [1] is mannose binding protein (MBP) of Acanthamoeba (Acanthamoeba castellanii, UniProt Q6J288). In words: Solid-phase assay of 35S-labeled Acanthamoeba binding to Man-BSA coated wells. The arrangement: species or system Acanthamoeba strain MEEI 0184 (A. castellani). The settings on record: for Inhibition of amoebic binding to Man-BSA / affinity of amoebic lectin: no concentration stated. The text has this: The Acanthamoeba strain MEEI 0184 (A. castellani based on morphological characteristics) was derived from an infected human cornea and used throughout this study. ATCC strain 30868 should have similar properties. The parasites were axenically cultured in PYG medium. A solid-phase assay characterized the sugar binding properties of the mannose binding protein (MBP) of Acanthamoeba (Z. Yang et al., Infect. Immun. 65:439-445, 1997). Briefly, wells of microtiter plates were coated with bovine serum albumin-α-D-mannopyranosyl phenylisothiocyanate (Man-BSA, 15-25 moles of α-D-mannopyranoside/mole albumin, 0.03 μg/ml, 50μl/well in 0.1 M sodium carbonate buffer, pH 9.6, 4° C. overnight). Nonspecific binding was blocked with 1% BSA in phosphate buffered saline (PBS, 1 hour, room temperature). After adding a 50-μl aliquot of ^35 S-labeled Acanthamoeba (5×10^6 cells/ml in PBS; 1 to 2 cpm/parasite, >95% trophozoites) to each well, the plates were incubated for 2 hours at room temperature. After rinsing the cells with PBS to remove unbound Acanthamoeba, 0.1 ml of 2% sodium dodecyl sulfate (SDS) was added to each well, and the radioactivity in aliquots of solubilized material was determined in a scintillation counter.
mannose binding protein (MBP) of Acanthamoeba, sequence (Q6J288 entry or part of it): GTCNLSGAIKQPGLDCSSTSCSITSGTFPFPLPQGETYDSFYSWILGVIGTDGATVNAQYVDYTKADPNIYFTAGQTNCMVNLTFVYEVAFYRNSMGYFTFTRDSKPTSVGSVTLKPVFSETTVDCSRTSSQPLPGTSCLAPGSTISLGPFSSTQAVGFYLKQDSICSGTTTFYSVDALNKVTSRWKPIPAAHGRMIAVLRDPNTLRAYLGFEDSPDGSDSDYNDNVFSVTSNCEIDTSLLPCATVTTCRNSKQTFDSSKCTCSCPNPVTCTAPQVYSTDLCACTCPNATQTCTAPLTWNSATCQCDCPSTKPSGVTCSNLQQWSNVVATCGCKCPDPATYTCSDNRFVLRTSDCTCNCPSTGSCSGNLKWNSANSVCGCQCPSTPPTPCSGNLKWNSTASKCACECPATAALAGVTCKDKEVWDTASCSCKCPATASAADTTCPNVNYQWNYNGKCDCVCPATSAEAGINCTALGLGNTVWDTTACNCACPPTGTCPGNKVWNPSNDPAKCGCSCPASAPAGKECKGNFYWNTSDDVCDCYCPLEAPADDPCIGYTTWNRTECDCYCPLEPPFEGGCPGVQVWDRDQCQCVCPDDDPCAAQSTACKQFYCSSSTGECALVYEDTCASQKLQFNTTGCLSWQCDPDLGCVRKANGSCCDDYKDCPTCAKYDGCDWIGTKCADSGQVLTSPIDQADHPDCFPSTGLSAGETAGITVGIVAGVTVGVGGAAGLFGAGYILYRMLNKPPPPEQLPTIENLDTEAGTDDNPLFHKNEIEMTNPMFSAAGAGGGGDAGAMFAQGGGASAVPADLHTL

Test [2] concerns Acanthamoeba. The test is described as follows: 51Cr release assay of amoeba-induced cytolysis of corneal epithelium. It is filed as cell-based. On the procedure:
Chromium release experiments were performed to confirm the absence or occurrence of cytolysis. Visually, cell plaques or bare spots in a culture can indicate either cell loss by cytolysis, or separation of the cell from the culture surface, wherein detached cells, although initially viable, subsequently die. Cell lysis was quantified by measuring ^51 Cr release from prelabeled cells. After incubating confluent monolayer cultures of corneal epithelium in 24-well plates in cell culture medium containing Na^51 CrO4 (460 mCi/mg, 12 μCi/ml) for 18-20 hours, the cells were thoroughly rinsed and incubated with Acanthamoeba (1×10^6 parasites/ml SFB media). The four groups were (i) Acanthamoeba in media alone, (ii) Acanthamoeba in media containing α-Man, (iii) Acanthamoeba in media containing GlcNAc, and (iv) Acanthamoeba condition media. When approximately 50-70% cell loss occurred based on phase contrast microscopy, aliquots of cell-free conditioned medium from each well were analyzed. Supernatants from the four wells in each group were pooled before analysis. Percent specific release was calculated using E/T×100, where E is CPM released in test well minus CPM released in control (parasite-free) well and T is the total CPM (CPM cells+CPM supernatant in control wells). "CPM cells" was determined by incubating control wells with 0.5% Triton X-100. Conditioned media from each well was also analyzed for lactate dehydrogenase (LDH) release using an LDH assay kit (Sigma).

Test [3] has as its system Acanthamoeba. The test is described as follows: Acanthamoeba-induced cytopathic effect (CPE) assay, immortalized corneal epithelial cultures. It is filed as cell-based. To be noted: for Inhibition of amoeba-induced CPE: no concentration stated. The procedure:
Corneal epithelial cells with extended life span were also produced.
To characterize the role of carbohydrate-mediated host-parasite interactions in the Acanthamoeba-induced cytotoxicity of host cells, in vitro cytopathic assays were performed using both primary and immortalized cultures of corneal epithelium as host cells. Immortalized cells were assayed as confluent cultures in 24-well plates, and primary cells were assayed as confluent cells in 35-mm dishes or 6-well plates.
The plates were incubated at 37° C. in a CO2 incubator and periodically examined under a phase-contrast microscope for the presence of cell-free plaques in the monolayer for up to 28-30 hours. Control wells contained host cells without the parasites. At the end of the incubation period, the cultures were stained with Giemsa (Diff-Quik, Dade Diagnostic Inc., Aguada, PR). Approximate cell density in each well was estimated by scanning the stained plates in a calibrated, computer-assisted Bio-Image Scanner (Millipore, Ann Arbor, Mich.). Cytopathic effect (CPE) was expressed as percentage of the optical density by the following formula: [formula]
The CPE assays were performed in the SFB media containing one or more saccharides to be tested.
After staining with Giemsa, percent cell loss in each well was calculated based on the optical density in each well.
A general note: Damage to the host cells serves as the signal in cytopathic effect assays.

The target in another test is proteinases P2 and P3. In words: Zymography of media conditioned by amoebae with primary corneal epithelium, with or without α-Man. It is filed as cell-based, Acanthamoeba. The settings on record: amoebae with host cells, adhesion blocked by saccharide. On the procedure: To characterize the mechanism by which the mannose-mediated host-parasite interactions influence the amoeba-induced cytolysis and/or cytopathic effect, conditioned media obtained by incubating amoebae with primary cultures of corneal epithelium in the presence and absence of α-Man for 6 to 8 hours were analyzed by zymography. Media conditioned by only Acanthamoeba or only epithelial cells were also analyzed. Zymography was performed using separating gels containing 10% acrylamide and 2 mg/ml gelatin, essentially as described by D. E. Kleiner et al. (Anal Biochem. 218:325-329, 1994). Samples were diluted in the electrophoresis sample buffer (U. K. Laemmli, Nature 227:680-685, 1970) without mercaptoethanol and were applied to the gels. After electrophoresis, proteinases separated on the gels were renatured by incubating the gels in 2.5% Triton X-100 in 50 mM Tris-HCl, pH 7.5 to remove SDS. After incubating the gels for 18 hours in a developing buffer (50 mM Tris-HCl, pH 7.5 containing 10 mM CaCl2), the gels were stained with Coomassie brilliant blue. Areas of digestion were visualized as non-staining regions. In some experiments, samples were pre-treated with phenylmethylsulfonyl fluoride (PMSF, 1 mM), an inhibitor of […] for one hour prior to electrophoresis, or 1,10-phenanthroline (1 mM), an inhibitor of metalloproteinases, was added to the developing buffer.

The mark [4] stands for this setting: listed as Methyl-α-mannopyranoside.

With `CO[C@H]1O[C@H](CO)[C@@H](O)[C@H](O)[C@@H]1O` [Methyl-α-D-mannopyranoside], the “Relative inhibitory potency in binding to Man-BSA” value in test [1] (comparator named in the value, listed as α-Man) is recorded as “ten times that of D-mannose; also recorded: eight times that of β-Man”. The figures for the “Inhibition of amoebic binding to Man-BSA / affinity of amoebic lectin” value in test [1] (setting [4]) and in test [1] (listed as α-Man) were “potent inhibitors” and “highest affinity”, respectively. For the same compound, the “Percentage specific 51Cr release” value in the test with Acanthamoeba [2] (Acanthamoeba 1×10^6 parasites/ml in media containing the saccharide, media alone about 100) was around 28%. The “Inhibition of amoeba-induced cytolysis” value in the test on Acanthamoeba [2] (fifty millimolar, 51Cr release) is listed as “more than 70%”. In addition, the inhibition (as a rule, the share of the control response that was lost under treatment) at 310 µM with Acanthamoeba [3] (Acanthamoeba, in Oryctolagus cuniculus, at 0.31 mM, read-out: Inhibition of cytopathic effect (% inhib. at indicated conc.)) was 61%. Further, in the test with Acanthamoeba [3] (incubation with amoebae in presence of saccharide, without it nearly complete loss after about 20 hours), the “Time at which cell layer began to lift from the periphery” value is 20 to 28 h. Further, the “Inhibition of amoeba-induced CPE” value in the test on Acanthamoeba [3] (setting [4]) is “potent inhibitors”; in the test with Acanthamoeba [3] (listed as α-Man), “nearly identical”. In addition, the “Amoeba-induced cytolysis of corneal epithelial cells (microscopy, words)” value with Acanthamoeba [3] (saccharide present in media) is listed as “substantially inhibited”. Further, the “Cell-free plaques in monolayer” value in the test with Acanthamoeba [3] (saccharide present in media) is reported as “not detected”. Further, at proteinases P2 and P3, the “Expression of proteinase P2 (97 kD)” value is reported as “robustly expressed”. In addition, on proteinases P2 and P3 (listed as α-Man), the “Expression of proteinase P3 (80 kD)” value is listed as “not expressed; also recorded: not detected”.
